Reference: patent publication US20260297086A1, “CRYSTALLINE PROLYL HYDROXYLASE DOMAIN-CONTAINING PROTEIN (PHD) INHIBITOR AND USES THEREOF” (Insilico Medicine IP Limited, priority 2023, published 2026)

Assays:
[1] = system: HIF1α (Caco2 cells); assay: Caco2-HIF1α-HiBit assay; format: cell-based; settings: Homo sapiens, Caco-2
[2] = biological target: PHD2 (Homo sapiens, UniProt Q9GZT9); assay: PHD2 Enzymatic Assay (AlphaScreen); format: biochemical; settings: PHD2 enzyme, 30 min preincubation at RT
Chain of PHD2 (Q9GZT9 whole entry): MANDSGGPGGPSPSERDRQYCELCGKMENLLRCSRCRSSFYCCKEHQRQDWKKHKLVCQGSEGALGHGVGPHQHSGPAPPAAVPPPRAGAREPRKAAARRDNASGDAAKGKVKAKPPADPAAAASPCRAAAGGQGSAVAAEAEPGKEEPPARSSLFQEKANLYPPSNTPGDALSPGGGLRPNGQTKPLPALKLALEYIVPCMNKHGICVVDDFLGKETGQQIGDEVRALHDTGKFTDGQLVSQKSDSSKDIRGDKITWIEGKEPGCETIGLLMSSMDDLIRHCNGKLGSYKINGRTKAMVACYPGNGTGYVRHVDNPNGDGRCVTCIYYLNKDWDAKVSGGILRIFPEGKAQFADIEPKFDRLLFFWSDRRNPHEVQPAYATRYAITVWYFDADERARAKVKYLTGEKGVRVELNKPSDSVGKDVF
Description: Example 1: PHD2 Enzymatic Assay Procedure
Compound DMSO stock preparation: Compound 1 was reconstituted into 20 mM stock by DMSO.
Compound storage: Compound 1 in DMSO was stored at RT in a desiccator for short-term storage (up to 3 months).
• Reference Roxadustat (FG-4592) was 3-fold serial diluted from 400 μM for 10 doses in DMSO. • The compounds were 3-fold serial diluted from 400 μM for 10 doses in DMSO. • Prepared 200× positive control (400 μM, FG-4592) and 200× vehicle control (100% DMSO). • Centrifuged compound plates at 1000 rpm for 1 min.
• a) Transferred 40 nl compound dilutions into each well of assay plates using Echo 655; • b) Sealed the assay plate and centrifuge compound plates at 1000 rpm for 1 min. • c) Prepared and add 4 μL of the 2×PHD2 enzyme working solution to individual well of the assay plate. • d) Sealed the assay plate and centrifuge compound plates at 1000 rpm for 1 min. […]
• ALPHASCREEN signal (ALPcmpd) is calculated for each well • % Inhibition is calculated as follow:
[formula] • ALPpositive: The average ALP for the positive controls across the plate. • ALPvehicle: The average ALP for the negative controls across the plate. • Calculate IC50 and Plot effect-dose curve of compounds: • Calculated IC50 by fitting % inhibition values and log of compound concentrations to nonlinear regression (dose response−variable slope) with Graphpad 8.0. […]

With `CC(C)(C)OC(=O)N1CCN(c2ccc3c(O)c(C(=O)NCc4ccc(C#N)nc4)ncc3n2)CC1` [Compound 1, tert-butyl 4-(6-(((6-cyanopyridin-3-yl)methyl)carbamoyl)-5-hydroxy-1,7-naphthyridin-2-yl)piperazine-1-carboxylate] the EC50 [1] was < 2.5 µM and the IC50 [2] was < 0.005 µM.
